{
  "source": "paper PMC9327782",
  "about": "“Benzoxazole derivatives as new VEGFR-2 inhibitors and apoptosis inducers: design, synthesis, in silico studies, and antiproliferative evaluation” (Journal of Enzyme Inhibition and Medicinal Chemistry, 2022)",
  "type_in_all_cases": "cell-based, human",
  "key": {"HepG2 cells [1]": {"test_system": "HepG2 cells", "assay": "Flow cytometry cell cycle analysis (PI staining)", "details": "HepG2, 10.50 µM, 24 h", "protocol": "Compound 12I, achieved notable cytotoxic and VEGFR-2 inhibitory potencies was further studied mechanistically for cell cycle progression and induction of apoptosis in HepG2 cells. Cell cycle process was analysed after exposure of HepG2 cells to 12I with a concentration of 10.50 µM for 24 h.\nThis assay was applied using propidium iodide (PI) staining in accordance with the comprehensive description in Supplementary data[34]^,[35] […]\n3. Flow cytometry analysis for cell cycle\nTo determine the role of the synthesized compounds in cell cycle distribution, cell cycle analysis was performed using propidium iodide (PI) staining and flow cytometry analysis for compound\n12l. Flow Cytometry Kit for Cell Cycle Analysis (ab139418_Propidium Iodide Flow Cytometry Kit/BD) was used in this test. HepG2 cells were treated with compound 12l (10.50 µM) for 24 h.\nThen, the cells were fixed in 70% ethanol at 4 °C for 12 h. After that, the cells were washed with cold PBS, incubated with 100 μl RNase A at 37 °C for 30 min, and stained with 400 μl PI in the dark at room temperature for further 30 min. The stained cells were measured using Epics XL-MCL™ Flow Cytometer (Beckman Coulter), and the data were analyzed using Flowing software (version 2.5.1, Turku Centre for Biotechnology, Turku, Finland) ."}, "WI-38 cell line": {"test_system": "WI-38 cell line", "assay": "In vitro cytotoxicity against normal cell line (MTT)", "parameters": "LogIC50 best-fit value, WI-38: unit not given here", "excerpt": "[…]. Such values were very high in comparison to the corresponding values on cancer cell lines, which reflect high safety profile of the tested candidates towards normal cell lines.\n(§1) MTT assay protocol. This method was applied in accordance with the comprehensive description in Supplementary data. […]\n(§2) 5 Raw data of cytotoxity and VEGFR -2 assay […]\n(§3) Experimental of biological testing\n(§4) 1. In vitro anti-proliferative activity\n(§5) MTT assay protocol was applied to assess the anti-proliferative activity of the synthesized compounds. Two human cancer cell lines (MCF-7 and HepG-2) and one normal cell line (WI-38) were used in this test. At first, the cell lines were cultured in RPMI -1640 medium with 10% fetal bovine serum. Antibiotics (100 units/ml penicillin and100 µg/ml streptomycin ) were added at 37 °C in a 5% CO2 incubator. The cell lines were seeded in a 96-well plate at a density of 1.0 x 10^4 cells / well at 37 °C for 24 h under 5% CO2. After incubation, the cells were treated with different […]\n(§6) concentration of the synthesized compounds and incubated for 24 h. After 24 h of drug treatment, 20 µl of MTT solution at 5mg/ml was added and incubated for 4 h. Dimethyl sulfoxide (DMSO) in volume of 100 µl was added into each well to dissolve the purple formazan formed. The colorimetric assay was measured and recorded at absorbance of 570 nm using a plate reader (EXL 800, USA). The relative cell viability in percentage was calculated as (A570 of treated samples/A570 of untreated sample) X 100. […]"}, "MCF-7 cell line": {"test_system": "MCF-7 cell line", "assay": "In vitro anti-proliferative MTT assay, MCF-7", "details": "Homo sapiens", "excerpt": "The cytotoxicity results were obtained as median growth inhibitory concentration (IC50).\nas §1, §2, §3, §4, §5, §6"}, "HepG2 cells [2]": {"test_system": "HepG2 cells", "assay": "Flow cytometry apoptosis analysis (Annexin V/PI)", "protocol": "In details, 32.45 and 2.86% for early and late apoptotic phases, respectively compared to control, (6.56%,5.34%,1.22%, respectively) (Figure 5 and Table 5).\nApoptotic effect was applied in accordance with the comprehensive description in Supplementary data[36]^,[37]\n4. Flow cytometry analysis for apoptosis\nFlow cytometry cell apoptosis analysis was used to investigate the apoptotic effect of the synthesized compounds. HepG2 cells were treated with compound 12l (10.50 µM) for 24 h, collected by trypsin, centrifuged, washed two successive times with PBS, suspended in 500 μl binding buffer, and double stained with 5 μl Annexin V-FITC and 5 μl PI in the dark at room temperature for 15 min. The stained cells were measured using Epics XL-MCL™ Flow Cytometer and analyzed using Flowing software. […]"}, "[3]": {"details": "supplement raw data, dose-response curve fit"}, "[4]": {"details": "HepG2, 24 h, mean ± SEM of two experiments"}},
  "note": "Where two headings read alike, the source gives them in different places.",
  "data": [
    {"compound": "Cc1ccc2oc(SCC(=O)Nc3ccc(C(=O)Nc4cccc(Cl)c4)cc3)nc2c1", "note": "[Compound 12l, N-(3-Chlorophenyl)-4–(2-((5-methylbenzo[d]oxazol-2-yl)thio)acetamido)benzamide]", "values": [
      {"measurement": "Cell cycle distribution %S", "setting": "HepG2 cells [1]", "result": 38.68, "unit": "%"},
      {"measurement": "Cell cycle distribution % G2/M", "setting": "HepG2 cells [1]; listed as 12I", "result": 32.10, "unit": "%"},
      {"measurement": "Cell cycle distribution %Sub-G1 (Pre-G1)", "setting": "HepG2 cells [1]; listed as 12I", "result": 0.79, "unit": "%"},
      {"measurement": "Cell cycle distribution % G2/M", "setting": "HepG2 cells [1]; listed as 12 l", "result": "32.10 ± 181", "unit": "%"},
      {"measurement": "Cell cycle distribution %G1", "setting": "HepG2 cells [1]; listed as 12 l", "result": "28.43 ± 0.37", "unit": "%"},
      {"measurement": "Cell cycle distribution %S", "setting": "HepG2 cells [1]; listed as 12 l", "result": "38.68 ± 1.81", "unit": "%"},
      {"measurement": "Cell cycle distribution %Sub-G1 (Pre-G1)", "setting": "HepG2 cells [1]; listed as 12 l", "result": "0.79 ± 0.25", "unit": "%"},
      {"measurement": "IC50", "setting": "WI-38 cell line; WI-38, normal human lung cell line, MTT", "result": 37.8, "unit": "µM"},
      {"measurement": "HillSlope best-fit value, WI-38", "setting": "WI-38 cell line; [3]", "result": -0.4502},
      {"measurement": "LogIC50 best-fit value, WI-38", "setting": "WI-38 cell line; [3]", "result": 1.577},
      {"measurement": "IC50", "setting": "MCF-7 cell line; MCF7, 24 h, MTT, 24 h treatment, mean of three experiments, read-out: In vitro IC50 MCF-7", "result": "15.2 ± 1.1", "unit": "µM"},
      {"measurement": "IC50", "setting": "MCF-7 cell line; MCF7, supplement raw data, dose-response curve fit, read-out: LogIC50 best-fit value, MCF-7 (converted)", "result": 15.2, "unit": "µM"},
      {"measurement": "Early apoptotic phase", "setting": "HepG2 cells [2]; HepG2, 10.50 µM, 24 h", "result": 32.45, "unit": "%"},
      {"measurement": "Late apoptotic phase", "setting": "HepG2 cells [2]; HepG2, 10.50 µM, 24 h", "result": 2.86, "unit": "%"},
      {"measurement": "Apoptosis Early (Right Bottom)", "setting": "HepG2 cells [2]; [4]", "result": "32.45 ± 3.13"},
      {"measurement": "Apoptosis Late (Right Top)", "setting": "HepG2 cells [2]; [4]", "result": "2.86 ± 0.21"},
      {"measurement": "Necrosis (Left Top)", "setting": "HepG2 cells [2]; [4]", "result": "0.14 ± 0.06"},
      {"measurement": "Viable (Left Bottom)", "setting": "HepG2 cells [2]; HepG2, 24 h, mean ± SEM of two experiments, in %", "result": "64.55 ± 3.43"}
    ]}
  ]
}
